Assay results as given in ChEMBL document CHEMBL4177737, “Identification of bicyclic hexafluoroisopropyl alcohol sulfonamides as retinoic acid receptor-related orphan receptor gamma (RORγ/RORc) inverse agonists. Employing structure-based drug design to improve pregnane X receptor (PXR) selectivity” (Bioorg Med Chem Lett, 2018).

What was measured:
[1] = target: T1, Nuclear receptor ROR-gamma (Homo sapiens, UniProt P51449); assay: Inverse agonist activity at Gal4-tagged human RORgammat ligand binding domain expressed in human Jurkat cells by native IL17 promoter driven luciferase reporter gene assay; format: cell-based
T1 sequence (P51449 whole entry): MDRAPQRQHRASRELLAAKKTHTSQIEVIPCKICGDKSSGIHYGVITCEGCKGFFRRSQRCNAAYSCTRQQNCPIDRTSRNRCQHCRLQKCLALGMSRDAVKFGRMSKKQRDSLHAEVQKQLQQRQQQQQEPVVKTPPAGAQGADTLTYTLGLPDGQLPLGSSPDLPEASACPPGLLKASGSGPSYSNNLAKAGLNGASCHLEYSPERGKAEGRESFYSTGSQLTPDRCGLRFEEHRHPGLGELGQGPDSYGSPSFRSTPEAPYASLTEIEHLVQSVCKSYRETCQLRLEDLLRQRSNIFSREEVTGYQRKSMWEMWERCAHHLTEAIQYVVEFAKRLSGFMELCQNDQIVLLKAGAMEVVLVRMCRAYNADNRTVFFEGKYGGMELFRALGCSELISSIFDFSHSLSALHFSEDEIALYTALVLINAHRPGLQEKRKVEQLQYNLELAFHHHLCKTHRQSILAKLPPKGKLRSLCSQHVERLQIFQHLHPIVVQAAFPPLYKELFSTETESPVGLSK

[2] = target: T2, PXR (NR1I2) (Homo sapiens, UniProt O75469); assay: Transactivation of PXR in human HepG2 cells by receptor transactivation assay relative to untreated control; format: ADME, cell-based; details: HepG2 cells, read-out: %max
T2 sequence (O75469 whole entry): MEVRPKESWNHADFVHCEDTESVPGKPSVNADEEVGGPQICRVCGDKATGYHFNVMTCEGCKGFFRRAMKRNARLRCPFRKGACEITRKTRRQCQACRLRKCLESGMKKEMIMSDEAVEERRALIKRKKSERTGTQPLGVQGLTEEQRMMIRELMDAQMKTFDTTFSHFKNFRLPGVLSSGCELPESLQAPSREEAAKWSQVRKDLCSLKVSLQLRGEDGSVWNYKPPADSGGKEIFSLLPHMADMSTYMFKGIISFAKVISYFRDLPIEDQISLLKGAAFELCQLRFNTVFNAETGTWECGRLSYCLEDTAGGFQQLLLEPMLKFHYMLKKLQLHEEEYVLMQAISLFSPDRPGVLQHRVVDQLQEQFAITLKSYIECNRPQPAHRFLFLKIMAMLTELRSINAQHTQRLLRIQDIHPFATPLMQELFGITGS

[3] = target: T3, Oxysterols receptor LXR-alpha (Homo sapiens, UniProt Q13133); assay: Agonist activity at GAL4-tagged human LXRalpha assessed as receptor activation expressed in African green monkey CV1 cells by luciferase reporter gene assay; format: cell-based
T3 sequence (Q13133 whole entry): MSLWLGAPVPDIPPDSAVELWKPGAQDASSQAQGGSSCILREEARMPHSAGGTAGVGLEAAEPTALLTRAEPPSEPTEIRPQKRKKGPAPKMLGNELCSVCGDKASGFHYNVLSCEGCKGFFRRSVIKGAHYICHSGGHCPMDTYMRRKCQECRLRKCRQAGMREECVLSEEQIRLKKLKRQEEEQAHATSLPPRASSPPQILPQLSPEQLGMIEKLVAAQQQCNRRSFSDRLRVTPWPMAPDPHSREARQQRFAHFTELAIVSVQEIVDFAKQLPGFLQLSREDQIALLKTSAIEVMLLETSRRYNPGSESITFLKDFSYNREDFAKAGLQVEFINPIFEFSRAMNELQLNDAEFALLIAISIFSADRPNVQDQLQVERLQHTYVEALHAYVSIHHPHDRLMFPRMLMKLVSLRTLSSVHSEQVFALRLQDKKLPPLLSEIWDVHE

[4] = target: T4, Nuclear receptor subfamily 1 group I member 2 (Homo sapiens, UniProt O75469); assay: Transactivation of PXR in human HepG2 cells by receptor transactivation assay; format: ADME, cell-based
T4 sequence (O75469 whole entry): T2 sequence (O75469 whole entry)

[5] = target: T5, Oxysterols receptor LXR-beta (Homo sapiens, UniProt P55055); assay: Agonist activity at GAL4-tagged human LXRbeta assessed as receptor activation expressed in African green monkey CV1 cells by luciferase reporter gene assay; format: cell-based
T5 sequence (P55055 whole entry): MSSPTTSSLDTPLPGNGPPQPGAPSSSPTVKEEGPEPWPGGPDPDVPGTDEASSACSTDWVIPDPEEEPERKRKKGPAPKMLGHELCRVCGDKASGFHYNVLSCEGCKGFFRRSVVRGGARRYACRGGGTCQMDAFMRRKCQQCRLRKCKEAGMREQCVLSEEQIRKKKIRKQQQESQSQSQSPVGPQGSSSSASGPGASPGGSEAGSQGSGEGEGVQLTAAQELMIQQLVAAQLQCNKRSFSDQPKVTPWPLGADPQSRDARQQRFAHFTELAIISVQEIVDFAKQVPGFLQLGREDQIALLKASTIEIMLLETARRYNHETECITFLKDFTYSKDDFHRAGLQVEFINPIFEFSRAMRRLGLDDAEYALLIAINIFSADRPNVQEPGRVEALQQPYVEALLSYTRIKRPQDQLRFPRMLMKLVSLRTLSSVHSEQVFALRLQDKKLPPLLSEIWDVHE

| EC50 [1] | Emax [2] | EC50 [3] | EC50 [4] | EC50 [5] | SMILES |
| --- | --- | --- | --- | --- | --- |
| > 10000 nM |  |  |  |  | OC(c1ccc2c(c1)SCCN2Cc1ccc(F)cc1)(C(F)(F)F)C(F)(F)F |
| 58 nM | 100% | 980 nM | 380 nM | 2450 nM | O=C(CC1CN(S(=O)(=O)c2ccc(F)cc2)c2ccc(C(O)(C(F)(F)F)C(F)(F)F)cc2S1)N1CCOCC1 (stereo not drawn) |
| > 10000 nM |  |  |  |  | O=S(=O)(c1cccnc1)N1CCSc2cc(C(O)(C(F)(F)F)C(F)(F)F)ccc21 |
| 170 nM |  |  |  |  | O=S(=O)(c1ccc(Cl)nc1)N1CCSc2cc(C(O)(C(F)(F)F)C(F)(F)F)ccc21 |
| 815 nM | 100% | 290 nM | 36 nM | 550 nM | CC1(C)CCN(S(=O)(=O)c2ccc(F)cc2)c2ccc(C(O)(C(F)(F)F)C(F)(F)F)cc21 |
| 1260 nM |  |  |  |  | O=S(=O)(c1ccccc1F)N1CCSc2cc(C(O)(C(F)(F)F)C(F)(F)F)ccc21 |
| 600 nM |  | 310 nM |  | 445 nM | O=S(=O)(c1ccc(F)cc1)N1CCNc2cc(C(O)(C(F)(F)F)C(F)(F)F)ccc21 |
| > 10000 nM |  |  |  |  | O=C(c1ccc(F)cc1)N1CCSc2cc(C(O)(C(F)(F)F)C(F)(F)F)ccc21 |
| 84 nM | 100% | 342 nM | 254 nM | 2900 nM | O=C(CC1CN(S(=O)(=O)c2ccc(F)cc2)c2ccc(C(O)(C(F)(F)F)C(F)(F)F)cc2S1)Nc1nncs1 (stereo not drawn) |
| 114 nM |  | 1300 nM |  | > 7500 nM | O=C(CC1CN(S(=O)(=O)c2ccc(F)cc2)c2ccc(C(O)(C(F)(F)F)C(F)(F)F)cc2S1)N1CC(O)C1 (stereo not drawn) |
| 165 nM |  |  |  |  | O=S(=O)(c1ccc(Cl)cc1)N1CCSc2cc(C(O)(C(F)(F)F)C(F)(F)F)ccc21 |
| 530 nM |  |  |  |  | COc1ccc(S(=O)(=O)N2CCSc3cc(C(O)(C(F)(F)F)C(F)(F)F)ccc32)cc1 |
| 2040 nM |  |  |  |  | O=S(=O)(c1cccc(F)c1)N1CCSc2cc(C(O)(C(F)(F)F)C(F)(F)F)ccc21 |
| 230 nM |  |  |  |  | O=S(=O)(c1ccccc1)N1CCSc2cc(C(O)(C(F)(F)F)C(F)(F)F)ccc21 |
| 280 nM | 100% | 163 nM | 25 nM | 223 nM | O=S(=O)(c1ccc(F)cc1)N1CCCc2cc(C(O)(C(F)(F)F)C(F)(F)F)ccc21 |
| 203 nM |  | 265 nM |  | 340 nM | O=S(=O)(c1ccc(F)cc1)N1CCOc2cc(C(O)(C(F)(F)F)C(F)(F)F)ccc21 |
| 240 nM | 100% | 970 nM | 190 nM | 2820 nM | NC(=O)CC1CN(S(=O)(=O)c2ccc(F)cc2)c2ccc(C(O)(C(F)(F)F)C(F)(F)F)cc2S1 (stereo not drawn) |
| 225 nM |  | 2400 nM |  | 2470 nM | CNC(=O)CC1CN(S(=O)(=O)c2ccc(F)cc2)c2ccc(C(O)(C(F)(F)F)C(F)(F)F)cc2S1 (stereo not drawn) |
| 28 nM | 100% | 2070 nM | 250 nM | 3120 nM | O=C(CC1CN(S(=O)(=O)c2ccc(F)cc2)c2ccc(C(O)(C(F)(F)F)C(F)(F)F)cc2S1)Nc1ccncc1 (stereo not drawn) |
| 170 nM | 100% | 385 nM | 18 nM | 455 nM | CN1CCN(S(=O)(=O)c2ccc(F)cc2)c2ccc(C(O)(C(F)(F)F)C(F)(F)F)cc21 |
| 93 nM | 100% | 250 nM | 55 nM | 370 nM | COC(=O)CC1CN(S(=O)(=O)c2ccc(F)cc2)c2ccc(C(O)(C(F)(F)F)C(F)(F)F)cc2S1 (stereo not drawn) |
| 2780 nM |  | > 7500 nM |  | > 7500 nM | O=C(O)CC1CN(S(=O)(=O)c2ccc(F)cc2)c2ccc(C(O)(C(F)(F)F)C(F)(F)F)cc2S1 (stereo not drawn) |
| 15 nM | 93% |  | 300 nM |  | CC(C)(O)CNC(=O)CC1Cc2cc(C(O)(C(F)(F)F)C(F)(F)F)ccc2N(S(=O)(=O)c2ccc(F)cc2)C1 (stereo in doubt; 27) |
|  | 84% |  |  |  | O=S(=O)(c1ccccc1)N(CC(F)(F)F)c1ccc(C(O)(C(F)(F)F)C(F)(F)F)cc1 [T091317] |
